From the NIST ThermoML archive (doi:10.1021/je060271a)
“And” between values parts separate entries of the source, which are not always exact repeats. Identical values can stand only once. ± gives the expanded uncertainty stated by the source.

Details: Liquid, Vibrating tube method

CCCC(=O)OCC(COC(=O)CCC)(COC(=O)CCC)COC(=O)CCC [pentaerythritol tetrabutyrate]
Details | mass density
283.16 K, 23020 kPa | 1072.1 ± 1.3 kg/m3
283.16 K, 23036 kPa | 1072.1 ± 1.3 kg/m3
283.16 K, 23052 kPa | 1072.2 ± 1.3 kg/m3
283.16 K, 23069 kPa | 1072.1 ± 1.3 kg/m3
283.16 K, 23089 kPa | 1072.1 ± 1.3 kg/m3
283.16 K, 23106 kPa | 1072.1 ± 1.3 kg/m3
283.16 K, 23123 kPa | 1072.2 ± 1.3 kg/m3
283.16 K, 23269 kPa | 1072.2 ± 1.3 kg/m3
283.16 K, 23431 kPa | 1072.4 ± 1.3 kg/m3
283.16 K, 23452 kPa | 1072.4 ± 1.3 kg/m3
283.16 K, 23468 kPa | 1072.3 ± 1.3 kg/m3
283.16 K, 23490 kPa | 1072.3 ± 1.3 kg/m3
283.16 K, 23507 kPa | 1072.4 ± 1.3 kg/m3
283.16 K, 23524 kPa | 1072.5 ± 1.3 kg/m3
283.16 K, 23541 kPa | 1072.4 ± 1.3 kg/m3
283.16 K, 23562 kPa | 1072.4 ± 1.3 kg/m3
283.16 K, 23580 kPa | 1072.5 ± 1.3 kg/m3
283.16 K, 23601 kPa | 1072.4 ± 1.3 kg/m3
283.16 K, 23619 kPa | 1072.4 ± 1.3 kg/m3
283.16 K, 23636 kPa | 1072.4 ± 1.3 kg/m3
283.16 K, 23657 kPa | 1072.3 ± 1.3 kg/m3
283.16 K, 23675 kPa | 1072.4 ± 1.3 kg/m3
283.16 K, 23692 kPa | 1072.5 ± 1.3 kg/m3
283.16 K, 23710 kPa | 1072.6 ± 1.3 kg/m3
283.16 K, 23767 kPa | 1072.5 ± 1.3 kg/m3
283.16 K, 23788 kPa | 1072.6 ± 1.3 kg/m3
283.16 K, 23806 kPa | 1072.5 ± 1.3 kg/m3
283.16 K, 23824 kPa | 1072.5 ± 1.3 kg/m3
283.16 K, 23846 kPa | 1072.6 ± 1.3 kg/m3
283.16 K, 23864 kPa | 1072.6 ± 1.3 kg/m3
283.16 K, 24034 kPa | 1072.7 ± 1.3 kg/m3
283.16 K, 24056 kPa | 1072.8 ± 1.3 kg/m3
283.16 K, 24075 kPa | 1072.7 ± 1.3 kg/m3
283.16 K, 24094 kPa | 1072.7 ± 1.3 kg/m3
283.16 K, 24114 kPa | 1072.6 ± 1.3 kg/m3
283.16 K, 24135 kPa | 1072.6 ± 1.3 kg/m3
283.16 K, 24154 kPa | 1072.8 ± 1.3 kg/m3
283.16 K, 24172 kPa | 1072.7 ± 1.3 kg/m3
283.16 K, 24191 kPa | 1072.6 ± 1.3 kg/m3
283.16 K, 24213 kPa | 1072.7 ± 1.3 kg/m3
283.16 K, 24231 kPa | 1072.8 ± 1.3 kg/m3
283.16 K, 24254 kPa | 1072.9 ± 1.3 kg/m3
283.16 K, 24332 kPa | 1072.7 ± 1.3 kg/m3
283.16 K, 24351 kPa | 1072.9 ± 1.3 kg/m3
283.16 K, 24370 kPa | 1072.7 ± 1.3 kg/m3
283.16 K, 24392 kPa | 1072.7 ± 1.3 kg/m3
283.16 K, 24412 kPa | 1072.8 ± 1.3 kg/m3
283.16 K, 24431 kPa | 1072.9 ± 1.3 kg/m3
283.16 K, 24453 kPa | 1072.9 ± 1.3 kg/m3
283.16 K, 24472 kPa | 1072.9 ± 1.3 kg/m3
283.16 K, 24494 kPa | 1072.9 ± 1.3 kg/m3
283.16 K, 24514 kPa | 1072.9 ± 1.3 kg/m3
283.16 K, 24532 kPa | 1072.9 ± 1.3 kg/m3
283.16 K, 24551 kPa | 1072.9 ± 1.3 kg/m3
283.16 K, 24574 kPa | 1072.9 ± 1.3 kg/m3
283.16 K, 24593 kPa | 1072.9 ± 1.3 kg/m3
283.16 K, 24613 kPa | 1073 ± 1.3 kg/m3
283.16 K, 24636 kPa | 1072.9 ± 1.3 kg/m3
283.16 K, 24656 kPa | 1073 ± 1.3 kg/m3
283.16 K, 24989 kPa | 1073.1 ± 1.3 kg/m3
283.16 K, 25506 kPa | 1073.5 ± 1.3 kg/m3
283.16 K, 25531 kPa | 1073.5 ± 1.3 kg/m3
283.16 K, 25552 kPa | 1073.5 ± 1.3 kg/m3
283.16 K, 25573 kPa | 1073.4 ± 1.3 kg/m3
283.16 K, 26529 kPa | 1073.9 ± 1.3 kg/m3
283.16 K, 26552 kPa | 1074 ± 1.3 kg/m3
283.16 K, 26575 kPa | 1074 ± 1.3 kg/m3
283.16 K, 26603 kPa | 1073.9 ± 1.3 kg/m3
283.16 K, 26626 kPa | 1074 ± 1.3 kg/m3
283.16 K, 26649 kPa | 1074 ± 1.3 kg/m3
283.16 K, 26676 kPa | 1073.9 ± 1.3 kg/m3
283.16 K, 26698 kPa | 1074 ± 1.3 kg/m3
283.16 K, 29351 kPa | 1075.5 ± 1.3 kg/m3
283.16 K, 29380 kPa | 1075.4 ± 1.3 kg/m3
283.16 K, 29409 kPa | 1075.5 ± 1.3 kg/m3
283.16 K, 33957 kPa | 1077.9 ± 1.4 kg/m3
283.16 K, 34005 kPa | 1077.8 ± 1.4 kg/m3
283.16 K, 34045 kPa | 1078 ± 1.4 kg/m3
283.16 K, 34086 kPa | 1077.9 ± 1.4 kg/m3
283.16 K, 34136 kPa | 1078 ± 1.4 kg/m3
283.16 K, 34523 kPa | 1078 ± 1.4 kg/m3
283.16 K, 34524 kPa | 1078.1 ± 1.4 kg/m3
283.16 K, 34525 kPa | 1078.1 ± 1.4 kg/m3 and 1078 ± 1.4 kg/m3
283.16 K, 34526 kPa | 1078.2 ± 1.4 kg/m3 and 1078.1 ± 1.4 kg/m3
283.16 K, 34527 kPa | 1078.1 ± 1.4 kg/m3 and 1078.2 ± 1.4 kg/m3
283.16 K, 34528 kPa | 1078.2 ± 1.4 kg/m3 and 1078.1 ± 1.4 kg/m3
283.16 K, 34529 kPa | 1078.1 ± 1.4 kg/m3
283.17 K, 5010.1 kPa | 1062 ± 1.3 kg/m3
283.17 K, 5010.7 kPa | 1062.1 ± 1.3 kg/m3
283.17 K, 5010.8 kPa | 1062 ± 1.3 kg/m3
283.17 K, 5011 kPa | 1062 ± 1.3 kg/m3
283.17 K, 5011.2 kPa | 1062 ± 1.3 kg/m3 and 1062.1 ± 1.3 kg/m3
283.17 K, 5011.5 kPa | 1062.1 ± 1.3 kg/m3
283.17 K, 5026.1 kPa | 1062 ± 1.3 kg/m3
283.17 K, 5026.2 kPa | 1061.9 ± 1.3 kg/m3
283.17 K, 5026.4 kPa | 1062 ± 1.3 kg/m3
283.17 K, 5482.5 kPa | 1062.3 ± 1.3 kg/m3
283.17 K, 5493.4 kPa | 1062.3 ± 1.3 kg/m3
283.17 K, 5500 kPa | 1062.3 ± 1.3 kg/m3
283.17 K, 5505.1 kPa | 1062.3 ± 1.3 kg/m3
283.17 K, 6286.6 kPa | 1062.7 ± 1.3 kg/m3
283.17 K, 6293.2 kPa | 1062.8 ± 1.3 kg/m3
283.17 K, 34163 kPa | 1077.8 ± 1.4 kg/m3
283.17 K, 34186 kPa | 1077.9 ± 1.4 kg/m3
283.17 K, 34206 kPa | 1078 ± 1.4 kg/m3
283.17 K, 34224 kPa | 1077.9 ± 1.4 kg/m3
283.17 K, 34234 kPa | 1077.9 ± 1.4 kg/m3
283.17 K, 34519 kPa | 1078.2 ± 1.4 kg/m3 and 1078.1 ± 1.4 kg/m3
283.17 K, 34520 kPa | 1078.1 ± 1.4 kg/m3
283.17 K, 34521 kPa | 1078.2 ± 1.4 kg/m3 and 1078.1 ± 1.4 kg/m3
283.17 K, 34522 kPa | 1078 ± 1.4 kg/m3 and 1078.1 ± 1.4 kg/m3
283.17 K, 34523 kPa | 1078.2 ± 1.4 kg/m3
283.17 K, 34524 kPa | 1078.2 ± 1.4 kg/m3
303.15 K, 13139 kPa | 1050.5 ± 1.3 kg/m3
303.15 K, 20352 kPa | 1054.9 ± 1.3 kg/m3
303.15 K, 20397 kPa | 1055 ± 1.3 kg/m3
303.15 K, 20435 kPa | 1055.1 ± 1.3 kg/m3
303.15 K, 21135 kPa | 1055.3 ± 1.3 kg/m3
303.15 K, 21185 kPa | 1055.4 ± 1.3 kg/m3
303.15 K, 21226 kPa | 1055.4 ± 1.3 kg/m3
303.15 K, 21276 kPa | 1055.5 ± 1.3 kg/m3
303.15 K, 21416 kPa | 1055.6 ± 1.3 kg/m3
303.15 K, 32925 kPa | 1062.1 ± 1.3 kg/m3
303.15 K, 32967 kPa | 1062.1 ± 1.3 kg/m3
303.15 K, 33008 kPa | 1062.1 ± 1.3 kg/m3
303.15 K, 33049 kPa | 1062.2 ± 1.3 kg/m3
303.16 K, 104.1 kPa | 1042.1 ± 1.2 kg/m3
303.16 K, 104.5 kPa | 1042.2 ± 1.2 kg/m3
303.16 K, 105.2 kPa | 1042.1 ± 1.2 kg/m3
303.16 K, 105.7 kPa | 1042.2 ± 1.2 kg/m3
303.16 K, 106 kPa | 1042.3 ± 1.2 kg/m3
303.16 K, 106.2 kPa | 1042.2 ± 1.2 kg/m3
303.16 K, 106.4 kPa | 1042.2 ± 1.2 kg/m3
303.16 K, 106.7 kPa | 1042.3 ± 1.2 kg/m3
303.16 K, 108.3 kPa | 1042.3 ± 1.2 kg/m3
303.16 K, 112.7 kPa | 1042.2 ± 1.2 kg/m3
303.16 K, 117.7 kPa | 1042.3 ± 1.2 kg/m3
303.16 K, 124.5 kPa | 1042.2 ± 1.2 kg/m3
303.16 K, 132.1 kPa | 1042.1 ± 1.2 kg/m3
303.16 K, 137.5 kPa | 1042.1 ± 1.2 kg/m3
303.16 K, 143.9 kPa | 1042.3 ± 1.2 kg/m3
303.16 K, 150.9 kPa | 1042.3 ± 1.2 kg/m3
303.16 K, 159.9 kPa | 1042.2 ± 1.2 kg/m3
303.16 K, 169 kPa | 1042.2 ± 1.2 kg/m3
303.16 K, 180.8 kPa | 1042.3 ± 1.2 kg/m3
303.16 K, 192.3 kPa | 1042.2 ± 1.2 kg/m3
303.16 K, 204.8 kPa | 1042.2 ± 1.2 kg/m3
